How the values were obtained:
[1] = molecular target: T1, Avi-KRAS WT (1-169) GppNHp/RAF1 RBD-3xFLAG (52-151) (Homo sapiens, UniProt P01116); assay: Raf1-KRAS WT-GppNHP disruption HTRF assay (Biological Example 1); assay type: binding
T1 construct: Avi-KRAS WT (1-169)
Outline: (§1)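 Percent activity versus DMSO (100%) was derived from HTRF signal after KRAS–RAF1 RBD protein mix was incubated 1 h at room temperature with shaking and detection reagents were added for a further 1 h.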

[2] = molecular target: T2, Avi-KRAS G12R (1-169) GppNHp/RAF1 RBD-3xFLAG (52-151) (Homo sapiens, UniProt P01116, G12R); assay: Raf1-KRAS G12R-GppNHP disruption HTRF assay (Biological Example 1); assay type: binding
T2 construct: Avi-KRAS G12R (1-169)
T2 sequence (P01116 1-169 isoform P01116-2 G12R): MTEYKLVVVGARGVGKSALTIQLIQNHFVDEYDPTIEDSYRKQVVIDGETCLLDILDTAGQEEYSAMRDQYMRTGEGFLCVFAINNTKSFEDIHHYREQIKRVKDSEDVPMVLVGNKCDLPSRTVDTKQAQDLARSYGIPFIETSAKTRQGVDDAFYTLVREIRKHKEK
Outline: as §1

[3] = molecular target: T3, Avi-KRAS G12V (1-169) GppNHp/RAF1 RBD-3xFLAG (52-151) (Homo sapiens, UniProt P01116, G12V); assay: Raf1-KRAS G12V-GppNHP disruption HTRF assay (Biological Example 1); assay type: binding
T3 construct: Avi-KRAS G12V (1-169)
T3 sequence (P01116 1-169 isoform P01116-2 G12V): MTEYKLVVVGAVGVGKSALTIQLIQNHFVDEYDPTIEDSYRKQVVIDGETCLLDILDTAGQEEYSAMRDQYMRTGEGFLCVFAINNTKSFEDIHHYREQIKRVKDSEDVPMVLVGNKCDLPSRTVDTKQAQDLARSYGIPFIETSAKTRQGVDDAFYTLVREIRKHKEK
Outline: as §1

SW620 cells (KRAS G12V) = assay: Cell-based pERK HTRF assay in SW620 cell (Biological Example 4); conditions: Homo sapiens, SW-620, SW620 (KRAS G12V) cells, pERK HTRF
Outline: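 In SW620 cells grown in RPMI with 10% FBS, a 4 h compound treatment (0.25% DMSO, 9-point curve from 1 μM) preceded lysis. Phospho-ERK levels were then read by time-resolved FRET at 615 nm emission.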

[4] = molecular target: T4, Avi-KRAS G12D (1-169) GppNHp/RAF1 RBD-3xFLAG (52-151) (Homo sapiens, UniProt P01116, G12D); assay: Raf1-KRAS G12D-GppNHP disruption HTRF assay (Biological Example 1); assay type: binding
T4 construct: Avi-KRAS G12D (1-169)
T4 sequence (P01116 1-169 isoform P01116-2 G12D): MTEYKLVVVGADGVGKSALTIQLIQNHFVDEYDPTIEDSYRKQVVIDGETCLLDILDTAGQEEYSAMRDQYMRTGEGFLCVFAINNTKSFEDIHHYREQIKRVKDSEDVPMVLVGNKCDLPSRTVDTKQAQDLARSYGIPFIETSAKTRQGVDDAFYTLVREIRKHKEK
Outline: as §1

GP2d cells (KRAS G12D) = assay: Cell-based pERK HTRF assay in GP2d cell (Biological Example 2); conditions: GP2d, GP2d (KRAS G12D) cells, pERK HTRF
Outline: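 60 min compound, 0.25% DMSO, 9-pt half-log curve from 1 μM or 100 nM; DMEM/10% FBS.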

[5] = KRAS WT, GppNHp-loaded, class symbols
[6] = KRAS G12R, GppNHp-loaded, class symbols
[7] = KRAS G12V, GppNHp-loaded, class symbols
[8] = KRAS G12D, GppNHp-loaded, class symbols
[9] = KRAS WT, GppNHp-loaded, Table 11
[10] = KRAS G12R, GppNHp-loaded, Table 11
[11] = KRAS G12V, GppNHp-loaded, Table 11
[12] = KRAS G12D, GppNHp-loaded, Table 11

T1 sequence (P01116 1-169 isoform P01116-2): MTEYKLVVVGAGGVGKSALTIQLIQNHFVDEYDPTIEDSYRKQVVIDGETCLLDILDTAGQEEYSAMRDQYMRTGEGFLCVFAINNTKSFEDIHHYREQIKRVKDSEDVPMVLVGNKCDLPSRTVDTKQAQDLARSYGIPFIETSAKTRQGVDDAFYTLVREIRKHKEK

Structure (SMILES) | IC50 ([1]; KRAS WT-GppNHp/RAF1 RBD HTRF) | IC50 ([2]; KRAS G12R-GppNHp/RAF1 RBD HTRF) | IC50 ([3]; KRAS G12V-GppNHp/RAF1 RBD HTRF) | IC50 (SW620 cells (KRAS G12V)) | IC50 ([4]; KRAS G12D-GppNHp/RAF1 RBD HTRF) | IC50 (GP2d cells (KRAS G12D)) | IC50 [1, 5] | IC50 [2, 6] | IC50 [3, 7] | IC50 (SW620 cells (KRAS G12V); class symbols) | IC50 [4, 8] | IC50 (GP2d cells (KRAS G12D); class symbols) | IC50 [1, 9] | IC50 [2, 10] | IC50 [3, 11] | IC50 [4, 12]
CN(c1nc(OC[C@@]23CCCN2C[C@H](F)C3)nc2c(F)c(-c3ccc(F)c4sc(N)c(C#N)c34)c(C(F)(F)F)cc12)C12CC(CO)(C1)C2 [Compound 351] | 100 to 1000 nM | 100 to 1000 nM | 1000 to 10000 nM | < 100 nM | 100 to 1000 nM | < 100 nM |  |  |  |  |  |  |  |  |  | 
N#Cc1c(N)sc2c(F)ccc(-c3c(C(F)(F)F)cc4c(N5CCC[C@@H](CO)C5)nc(OC[C@@]56CCCN5C[C@H](F)C6)nc4c3F)c12 [Compound 316] | 100 to 1000 nM | 100 to 1000 nM | 1000 to 10000 nM | < 100 nM | 100 to 1000 nM | < 100 nM |  |  |  |  |  |  |  |  |  | 
CCN(c1nc(OC[C@@]23CCCN2C[C@H](F)C3)nc2c(F)c(-c3ccc(F)c4sc(N)c(C#N)c34)c(C(F)(F)F)cc12)[C@H]1CCN(C(=O)C(C)(C)C)C1 (atropisomer, axis not shown) [Compound 562] | < 100 nM | < 100 nM | 100 to 1000 nM | < 100 nM | < 100 nM | < 100 nM |  |  |  |  |  |  |  |  |  | 
CCN(c1nc(OC[C@@]23CCCN2C[C@H](F)C3)nc2c(F)c(-c3ccc(F)c4sc(N)c(C#N)c34)c(C(F)(F)F)cc12)[C@@H]1C[C@H](C)N(C(=O)OC)C1 (atropisomer, axis not shown) [Compound 544] | 100 to 1000 nM | 100 to 1000 nM | 100 to 1000 nM | < 100 nM | 100 to 1000 nM | < 100 nM |  |  |  |  |  |  |  |  |  | 
CCN(c1nc(OC[C@@]23CCCN2C[C@H](F)C3)nc2c(F)c(-c3ccc(F)c4sc(N)c(C#N)c34)c(C(F)(F)F)cc12)[C@H]1CCN(C(=O)N2CC3CC(C2)O3)C1 [Compound 651] |  |  |  |  |  |  | < 100 nM | < 100 nM | < 100 nM | < 100 nM | < 100 nM | < 100 nM |  |  |  | 
CC(C)C(=O)N1CC[C@@H]2[C@H]1CN2c1nc(OC[C@@]23CCCN2C[C@H](F)C3)nc2c(F)c(-c3ccc(F)c4sc(N)c(C#N)c34)c(C(F)(F)F)cc12 [Compound 536] | 1000 to 10000 nM | 1000 to 10000 nM | 1000 to 10000 nM | < 100 nM | 1000 to 10000 nM | < 100 nM |  |  |  |  |  |  |  |  |  | 
N#Cc1c(N)sc2c(F)ccc(-c3c(C(F)(F)F)cc4c(N5CCCS(=O)(=O)CC5)nc(OC[C@@]56CCCN5C[C@H](F)C6)nc4c3F)c12 [Compound 263] |  |  |  | < 100 nM |  | < 100 nM |  |  |  |  |  |  | < 100 nM | < 100 nM | 100 to 1000 nM | < 100 nM
C/C=C\C(=O)N1CC[C@H](N(CC)c2nc(OC[C@@]34CCCN3C[C@H](F)C4)nc3c(F)c(-c4ccc(F)c5sc(N)c(C#N)c45)c(C(F)(F)F)cc23)C1 (atropisomer, axis not shown) [Compound 677] |  |  |  |  |  |  | < 100 nM | < 100 nM | < 100 nM | < 100 nM | < 100 nM | < 100 nM |  |  |  | 
C[C@H]1[C@@H](N(C)c2nc(OC[C@@]34CCCN3C[C@H](F)C4)nc3c(F)c(-c4ccc(F)c5sc(N)c(C#N)c45)c(C(F)(F)F)cc23)CCN1C(=O)CO [Compound 240] |  |  |  | > 1000 nM |  | 100 to 1000 nM |  |  |  |  |  |  | 1000 to 10000 nM | 1000 to 10000 nM | 1000 to 10000 nM | 1000 to 10000 nM
N#Cc1c(N)sc2c(F)ccc(-c3c(C(F)(F)F)cc4c(N5C[C@@H]6C[C@H]5CS6(=O)=O)nc(OC[C@@]56CCCN5C[C@H](F)C6)nc4c3F)c12 [Compound 319] | 1000 to 10000 nM | 1000 to 10000 nM | 1000 to 10000 nM | 100 to 1000 nM | 100 to 1000 nM | 100 to 1000 nM |  |  |  |  |  |  |  |  |  | 
CN(C)C(=O)c1nc2c(s1)CN(c1nc(OCC34CCCN3CC(F)C4)nc3c(F)c(-c4ccc(F)c5sc(N)c(C#N)c45)c(C(F)(F)F)cc13)CC2 (stereo not drawn) [Compound 404] | < 100 nM | > 10000 nM | 1000 to 10000 nM | < 100 nM | 1000 to 10000 nM | < 100 nM |  |  |  |  |  |  |  |  |  | 
CCC(=O)N1CC[C@@H](N(CC)c2nc(OC[C@@]34CCCN3C[C@H](F)C4)nc3c(F)c(-c4ccc(F)c5sc(N)c(C#N)c45)c(C(F)(F)F)cc23)[C@H]1C [Compound 405] | 100 to 1000 nM | 100 to 1000 nM | 100 to 1000 nM | < 100 nM | 100 to 1000 nM | < 100 nM |  |  |  |  |  |  |  |  |  | 
CCC(=O)N1C[C@@H](N(CC)c2nc(OC[C@@]34CCCN3C[C@H](F)C4)nc3c(F)c(-c4ccc(F)c5sc(N)c(C#N)c45)c(C(F)(F)F)cc23)C[C@@H]1COC (atropisomer, axis not shown) [Compound 648] |  |  |  |  |  |  | 100 to 1000 nM | < 100 nM | < 100 nM | < 100 nM | < 100 nM | < 100 nM |  |  |  | 
CC(=O)N1CCCN(c2nc(OC[C@@]34CCCN3C[C@H](F)C4)nc3c(F)c(-c4ccc(F)c5sc(N)c(C#N)c45)c(C(F)(F)F)cc23)CC1 [Compound 278] |  |  |  | < 100 nM |  | < 100 nM |  |  |  |  |  |  | 100 to 1000 nM | 100 to 1000 nM | 100 to 1000 nM | 100 to 1000 nM
N#Cc1c(N)sc2c(F)ccc(-c3c(C(F)(F)F)cc4c(N5CCCC[C@H](O)C5)nc(OC[C@@]56CCCN5C[C@H](F)C6)nc4c3F)c12 [Compound 290] | 100 to 1000 nM | 100 to 1000 nM | 100 to 1000 nM | < 100 nM | 100 to 1000 nM | < 100 nM |  |  |  |  |  |  |  |  |  | 
N#Cc1c(N)sc2c(F)ccc(-c3c(C(F)(F)F)cc4c(N5C[C@H]6C[C@@H]5[C@@H](O)C6)nc(OC[C@@]56CCCN5C[C@H](F)C6)nc4c3F)c12 [Compound 360] | 1000 to 10000 nM | 1000 to 10000 nM | 1000 to 10000 nM | 100 to 1000 nM | 1000 to 10000 nM | < 100 nM |  |  |  |  |  |  |  |  |  | 
N#Cc1c(N)sc2c(F)ccc(-c3c(C(F)(F)F)cc4c(N5CCn6nc(C(=O)N7CCC7)cc6C5)nc(OCC56CCCN5CC(F)C6)nc4c3F)c12 (stereo not drawn) [Compound 626] |  |  |  |  |  |  | 100 to 1000 nM | 100 to 1000 nM | 100 to 1000 nM | < 100 nM | 100 to 1000 nM | < 100 nM |  |  |  | 
CCN(c1nc(OC[C@@]23CCCN2C[C@H](F)C3)nc2c(F)c(-c3ccc(F)c4sc(N)c(C#N)c34)c(C(F)(F)F)cc12)[C@H]1CCN(C(=O)c2ncc(C)o2)C1 (atropisomer, axis not shown) [Compound 803] |  |  |  |  |  |  | 100 to 1000 nM | 100 to 1000 nM | 100 to 1000 nM | < 100 nM | < 100 nM | < 100 nM |  |  |  | 
